Data from patent US20150352114A1, “MITOTIC KINESIN Eg5 INHIBITING ANTICANCER AGENTS” (THE CLEVELAND CLINIC FOUNDATION, priority 2014, published 2015).

Tested on: pCRMP2 (T514) in interphase GSCs
Assay: CRMP2 phosphorylation immunoblot
Type: cell-based, human
Settings: interphase GSCs treated with microtubule agents
Procedure: FIGS. 8(A-B) illustrate that Eg5 impacts microtubule growth through the CRMP-tubulin deposition pathway; (A) 08-387 GSCs enriched in interphase were exposed to vehicle (DMSO) or ispinesib (200 nM) and harvested for whole cell lysates every two hours over a 6 hour time course. Resulting lysates were probed for CRMP2 and pCRMP2 (T514); (B) Human brain microvascular endothelial cells (HuBrMVECs) were treated with vehicle (DMSO) or ispinesib (200 nM) and harvested for whole cell lysates every three hours over a 6 hour time course. Resulting lysates were probed for CRMP2 and pCRMP2 (T514); For all immunoblots, βactin served as a loading control. Molecular weight (MW) of resulting bands is given in kilodaltons (kD).
Protein extracts were made using a 50 mM Tris pH 8.0, […] NaCl, 0.5% NP-40 lysis solution. Resulting lysates were ran on 10% SDS-PAGE gels and transferred to Immobilon-FL PVDF (Millipore Corp., Billerica, Mass.). The membranes were blocked with 5% (wt/vol) bovine serum albumin in PBS-Tween-20 (0.2% vol/vol) and probed with primary antibodies against Eg5 (mouse, 1:4000, BD Biosciences, San Jose, Calif.), Olig2 (rabbit, 1:1000, abcam, San Francisco, Calif.), GFAP (DAKO; 1:10,000, Carpinteria, Calif.), CRMP2 (mouse, 1:1000, abgent, San Diego, Calif.), pCRMP2(T514) (rabbit, 1:1000, Cell Signaling, Beverly, Mass.), or β-actin (mouse, 1:8000, Sigma-Aldrich, St. Louis, Mo.) as a loading control. Secondary antibodies (LI-COR) were incubated in TBST+0.02% SDS and visualized with the LI-COR Odyssey near infrared imaging system (Lincoln, NB).

Row | SMILES | CRMP2 phosphorylation at T514
1 | COC(=O)Nc1nc2ccc(C(=O)c3cccs3)cc2[nH]1 [nocodazole] | induce CRMP2 phosphorylation at T514
2 | CC(=O)O[C@H]1C(=O)[C@@]2(C)[C@H]([C@H](OC(=O)c3ccccc3)[C@]3(O)C[C@H](OC(=O)[C@H](O)[C@@H](NC(=O)c4ccccc4)c4ccccc4)C(C)=C1C3(C)C)[C@]1(OC(C)=O)CO[C@@H]1C[C@@H]2O [paclitaxel] | induce CRMP2 phosphorylation at T514
